System: heart (myocardial damage) of Crl:CD-1 (ICR) BR female mice
Test: cardiotoxicity in the Bertazzoli mouse model
Type: in vivo
Conditions: intravenous, expected
Description: Animals/group: 15 Crl:CD-1 (ICR) BR female mice, about 4 weeks old at the start of treatment, will be used.
Test and control articles and formulations: Epi and rmuAb will be dissolved in normal saline (saline) and distilled water for injection (water), respectively, at the requested concentrations; dex will be dissolved in M/6 sodium lactate at the requested concentration; control animals will receive the above vehicles alone.
Dose levels and justification: The doses of 5 mg/kg/day for epi and 50 mg/kg/day for dex (epi/dex ratio: 1:10) are selected on the basis of the results of previous cardiotoxicity studies in mice. […] The two doses of rmuAb will be decided on the basis of the results of two preliminary studies performed to assess its toxicity and cardiotoxic potential in the above strain of mice.
Administration route: intravenous, via a tail vein, for epi, dex and rmuAb.
Study duration and treatment schedule: Twice a week at weeks 1, 2, 5, 6, and 7 for epi and dex; twice a week for 7 weeks for rmuAb. Dex will be given 30 minutes before epi. […]
Clinical observations and post-mortem examinations: Mortality, clinical signs and general condition will be recorded daily and body weight weekly. […] Cardiomyopathy will be evaluated by scoring the severity and extent of the myocardial lesions according to a qualitative/quantitative score. […]

Structure (SMILES) | effect on myocardial damage produced by epi (50 mg/kg/day dex, 30 minutes before epi) | cardiotoxicity induced (5 mg/kg/day epi)
C[C@@H](CN1CC(=O)NC(=O)C1)N1CC(=O)NC(=O)C1 [dex, dexrazoxane] | significantly reduce the myocardial damage | –
COc1cccc2c1C(=O)c1c(O)c3c(c(O)c1C2=O)C[C@@](O)(C(=O)CO)C[C@@H]3O[C@H]1C[C@H](N)[C@@H](O)[C@H](C)O1 [epi, epirubicin] | – | moderate/marked cardiotoxicity
